Experimental data taken from patent US9642922B2, “Caspase-triggered nano-aggregation probes and methods of use” (The Board of Trustees of the Leland Stanford Junior …, priority 2013, dated 2017).
Numbered stars: 1 amine (or outer) side, 2 acyl side, 3 side chain; on linkers, the order of the positions; unused ones are H or OH. Square brackets hold non-standard residues; d marks the D form. Peptide text beside a SMILES is read from it. * marks the point of attachment. DOTA = O=C(O)CN1CCN(CC(=O)O)CCN(CC(=O)*)CCN(CC(=O)O)CC1; X1 = O=C(C1CSC(c2nc3ccc(N[*:1])cc3s2)=N1)[*:2]; X2 = N#Cc1ccc2cc(OCCCN*)ccc2n1; SEt = CCS*

How the values were obtained:
caspase-3/7 = experiment: HPLC analysis of C-SNAF reaction in apoptotic cell lysates; format: biochemical, human; conditions: 5 μM, lysate of STS- and DOX-induced apoptotic HeLa or MDA-MB-231 cells
Procedure: To confirm the formation of the caspase-3/7-triggered intramolecular cyclization product C-SNAF-cycl in apoptotic cells, C-SNAF (5 μM) was incubated with both cell lysates and whole cells, and the products were analyzed by HPLC. […] However, more than 90% of C-SNAF was converted to C-SNAF-cycl in the lysate of STS- and DOX-induced apoptotic HeLa (FIG. 12A) or MDA-MB-231 cells, indicating the efficient intramolecular condensation initiated by caspase-3/7 in a complex cellular environment.
The culture medium was carefully removed and the cells were washed with cold 1×PBS. The cells were trypsinized to form cell pellets, and RIPA (RadioImmuno Precipitation Assay, sigma) buffer was added to cells using 100 μL of buffer per 4×10^6 cells. Then the cells were kept on ice for 0.5 h. The cell lysate was gathered, centrifuged at 14,000×g for 15 min at 4° C. The supernatant of the cell lysate was collected, and the caspase-3/7 activity in the lysate was determined by CASPASE-GLO® 3/7 assay. The cell lysate was diluted with caspase reaction buffer (2×, 1:1 diluted), and incubated with C-SNAF (5 μM) at 37° C. overnight and then injected into an HPLC system (Dionex) for analysis.

apoptotic HeLa cells = experiment: Epifluorescence microscopy of apoptotic HeLa cells labeled with probes; format: cell-based, human
Procedure: After removal of the medium, the cells were incubated with C-SNAF, L-ctrl, or D-ctrl at 2 μM for 24 h. Some cells were first incubated with caspase inhibitor (Z-VAD-fmk, 50 μM) for 30 min, followed by incubating with 2 μM C-SNAF for 24 h. The cells were carefully washed with PBS (1×) three times, and stained with Hoechst 33342 (2 μM) at 37° C. for 30 min. After rinses with PBS (1×) several times, the medium was replaced and the fluorescence images were acquired with DAPI and Cy5.5 filters. The images were processed using the standard CRi Nuance software, analyzed using Image J software package (NIH), and presented at the same intensity scale for comparison.
HeLa cells in #1.5 borosilicate 8-well chambered coverslips (Nunc) were either incubated with C-SNAF (2 μM) alone or co-incubated with DOX (1, 2, and 5 μM) and 2 μM C-SNAF, 2 μM C-SNAF together with caspase inhibitor (Z-VAD-fmk, 50 μM), or control probes D-ctrl and L-ctrl at 2 μM for 24 h. Then the medium was removed, the cells were carefully washed with PBS (1×) three times, and stained with nuclear binding probe Hoechst 33342 (2 μM) at 37° C. for 30 min. After several rinses with PBS (1×), the medium was replaced and the fluorescence images were acquired with DAPI and […] filters.

[1] = Blood circulation and elimination in healthy nude mice; conditions: 5 nmol i.v.
[2] = system: DOX-induced apoptotic HeLa cells; experiment: Flow cytometry of DOX-induced apoptotic HeLa cells labeled with probes; format: cell-based, human; conditions: 5 μM DOX, 2 μM probe, 24 h
Procedure: For the DOX-induced apoptotic cells, HeLa cells in 12-well plates were co-incubated with DOX (5 μM) and 2 μM C-SNAF, L-ctrl and D-ctrl, or 2 μM C-SNAF together with 50 μM Z-VAD-fmk for 24 h. After washing with PBS (1×) three times, the cells pellets were resuspended in 300 μL PBS, and applied for flow cytometry analysis using the Cy5.5 channels. The cell number for each flow cytometry analysis was approximately 5×10^3 to 10^4, and the data was processed using FlowJo software.

caspase-3 = target: T1, caspase-3 (Homo sapiens, UniProt P42574); experiment: T1 measurement of probe 15 with caspase-3; format: biochemical; set-up: purchased Sigma; host or cells: E. coli; conditions: probe 200 μM
T1 sequence (P42574 29-175 limits assumed): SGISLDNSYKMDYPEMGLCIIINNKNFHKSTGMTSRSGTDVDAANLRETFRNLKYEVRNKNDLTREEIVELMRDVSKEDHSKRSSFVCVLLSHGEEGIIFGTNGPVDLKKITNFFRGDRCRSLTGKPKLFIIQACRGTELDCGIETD
T1 sequence (P42574 176-277 limits assumed): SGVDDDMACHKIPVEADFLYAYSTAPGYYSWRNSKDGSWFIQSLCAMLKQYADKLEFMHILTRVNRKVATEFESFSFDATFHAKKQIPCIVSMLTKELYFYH
Procedure: (§1) The enzyme specificity of probe 15 was studied by measuring the T1 value resulting from probe incubation (208 μM) with any of five relevant subcellular proteases (caspase-3, -7, -9, cathepsin B and legumain) in enzyme buffer. […] The reduced T1 value in solution was inhibited by the caspase inhibitor Z-VAD-fmk (50 μM).
Caspase (human, recombinant from E. coli) assays were performed for caspase-3 (4.9×10^−3 U; 7.35×10^−4 mg, Sigma), −7 (18.3 U; 7.35×10^−4 mg, Calbiochem), and −9 (0.3 U; 7.35×10^−4 mg, Calbiochem). All caspase assays were conducted in caspase buffer with 50 mM HEPES, 100 mM NaCl, 1 mM EDTA, 10 mM TCEP, 10% glycerol, and 0.1% CHAPS at pH 7.4.

legumain = target: T2, legumain (Homo sapiens, UniProt Q99538); experiment: T1 measurement of probe 15 with legumain; format: biochemical; conditions: probe 208 μM, protease 50 nM, 1 T
T2 construct: purchased R&D Systems; host or cells: mouse myeloma cell line
Procedure: as §1
Cathepsin B (human liver; 0.27 U; 7.35×10^−4 mg, Calbiochem) and Legumain (human, recombinant from mouse myeloma cell line; >250 pmol/min/μg; 7.35×10^−4 mg, R&D Systems) were conducted in reaction buffer with 50 mM sodium acetate, 50 mM NaCl, 0.5 mM EDTA and 10 mM TCEP at pH 5.5. The C-SNAF was diluted in the respective enzyme reaction buffer (25 μM, 1 mL) and remained at room temperature for 10 min, to which was added respective enzymes.

T2 sequence (Q99538 18-323): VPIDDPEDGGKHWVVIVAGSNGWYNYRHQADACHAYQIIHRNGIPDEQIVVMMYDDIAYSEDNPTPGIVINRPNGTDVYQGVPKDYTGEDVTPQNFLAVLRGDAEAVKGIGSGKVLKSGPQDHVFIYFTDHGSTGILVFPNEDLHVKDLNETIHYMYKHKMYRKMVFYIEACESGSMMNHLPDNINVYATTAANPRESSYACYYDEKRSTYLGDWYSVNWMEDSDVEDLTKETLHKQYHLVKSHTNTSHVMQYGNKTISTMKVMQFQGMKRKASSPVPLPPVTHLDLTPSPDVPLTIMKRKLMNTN

SMILES	C-SNAF converted to C-SNAF-cycl in lysate (caspase-3/7)	cell labeling efficiency (apoptotic HeLa cells; DOX 1 μM)	cell labeling efficiency (apoptotic HeLa cells; DOX 5 μM)	enhancement in cell labeling efficiency (apoptotic HeLa cells; DOX 1 to 5 μM)	cell labeling efficiency (apoptotic HeLa cells; STS 0.5 μM)	cell labeling efficiency (apoptotic HeLa cells; STS 2 μM)	enhancement in cell labeling efficiency (apoptotic HeLa cells; STS 0.5 to 2 μM)	blood half-life [1]	time of nearly complete elimination after administration [1]	increase in Cy5.5 intensity of DOX-induced apoptotic cells compared to no probe or control probes [2]	lowest caspase-3 concentration detected by T1 value measurements (caspase-3)	T1 value after incubation with legumain (legumain)
CCSSC[C@@H](NC(=O)[C@H](CC(=O)O)NC(=O)[C@@H](NC(=O)[C@H](CCC(=O)O)NC(=O)[C@H](CC(=O)O)NC(C)=O)C(C)C)C(=O)N[C@@H](CCCCNC(=O)CCCCCN1C(=CC=CC=CC2=[N+](CC)c3ccc4c(S(=O)(=O)[O-])cc(S(=O)(=O)O)cc4c3C2(C)C)C(C)(C)c2c1ccc1c(S(=O)(=O)O)cc(S(=O)(=O)O)cc21)C(=O)Nc1ccc2nc(C3=N[C@@H](C(=O)NCCCOc4ccc5nc(C#N)ccc5c4)CS3)sc2c1 [C-SNAF]	more than 90%	9%	92%	approximately 10 fold	23%	90%	approximately 4 fold	1.0 ± 0.45 h	≤ 12 h	~4 fold		
CCSSCC(NC(=O)C(CC(=O)O)NC(=O)C(NC(=O)C(CCC(=O)O)NC(=O)C(CC(=O)O)NC(C)=O)C(C)C)C(=O)NC(CCCCNC(=O)CN1CCN(CC(=O)[O-])CCN(CC(=O)[O-])CCN(CC(=O)[O-])CC1)C(=O)Nc1ccc2nc(C3=NC(C(=O)NCCCOc4ccc5nc(C#N)ccc5c4)CS3)sc2c1.[Gd+3] (stereo not drawn) [probe 15] (Ac-DEVDC(SEt)K(DOTA)[X1]-X2; configuration not given here)											5 nM	No reduced T1 value
